We go through 13 molecules from patent US12692264B2, “Pyrimidine or pyridine derivative, preparation method therefor, and application thereof in pharmacy” (ABBISKO THERAPEUTICS CO., LTD., priority 2021, dated 2026).

For orientation: IC50 means the concentration needed to halve the response being measured.

Holding throughout (assay type): cell-based
Test [1] has as its system A431 (EGFR-WT). The test is described as follows: Cell proliferation study (CellTiter-Glo, 72 hrs), A431. As to conditions: Homo sapiens, A-431, A431 cells, CTG, * = average of multiple measurements. How it is done: (§1) (I) Reagents and Materials
(§2) • Fetal bovine serum FBS (GBICO, Cat #10099-141); • CellTiter-Glo® luminescent cell viability assay kit (Promega, Cat #G7572); • Black transparent flat-bottom 96-well plate (Corning®, Cat #3603). (II) Instruments • SpectraMax multi-label microplate reader MD, 2104-0010A; • Carbon dioxide incubator, Thermo Scientific 3100 series; • Biological safety cabinet, Thermo Scientific, 1300 series model A2; • Inverted microscope, Olympus, CKX41SF; • Siemens refrigerator KK25E76T1. (III) Cell Lines and Culture Conditions
(§3) (IV) Experimental Procedures 1. Cell Culture and Inoculation: • (1) Cells in the logarithmic growth phase were harvested and counted using a […]. The cell viability was determined by the trypan blue dye exclusion method to ensure cell viability above 90%. • (2) The cell concentration was adjusted to reach a desired final density; 90 μL of cell suspension was added to a 96-well plate. • (3) The cells were incubated overnight in the 96-well plate at 37° C., 5% CO2 and with 95% humidity. 2. T0 Benchmark Data: • (1) 10 μL of PBS was added to each well of the TO plate containing the cells. • (2) The CTG reagent was thawed and the cell plate was equilibrated to room temperature for 30 min. • (3) An equal volume of CTG solution was added to each well. • (4) The cells were lysed by shaking on an orbital shaker for 5 min. • (5) The cell plate was left to stand at room temperature for 20 min to stabilize the fluorescence signal. • (6) The fluorescence signal values of TO were read. 3. Dilution and Addition of Compounds • (1) According to the compound information table, a corresponding volume of DMSO was added to the corresponding compound powder to prepare a 10 mM stock solution. • (2) A 1000-fold, 3.16-fold-diluted compound solution was prepared. • (3) The 1000× diluted compound solution was diluted 100-fold with PBS to prepare a 10-fold compound solution with a maximum concentration of 10 μM, including 9 concentrations, with 3.16-fold dilution, and 10 μL of the medicament solution was added to each well of the 96-well plate to seed the cells. Triplicate wells were set for each compound concentration, with a final concentration of DMSO being 0.1%. • (4) The cells were placed in the 96-well plate containing the medicament at 37° C., 5% CO2 and with 95% humidity, and cultured for 72 hrs before CTG analysis. 4. Fluorescence Signal Reading • (1) The CTG reagent was thawed and the cell plate was equilibrated to room temperature for 30 min. • (2) An equal volume of CTG solution was added to each well. • (3) The cells were lysed by shaking on an orbital shaker for 5 min. • (4) The cell plate was left to stand at room temperature for 20 min to stabilize the fluorescence signal. • (5) The fluorescence values were read. 5. Data Processing
(§4) Data were analyzed using GraphPad Prism 7.0 software and fitted data were regressed using non-linear S-curves to obtain dose-response curves from which IC50 values (in nM) were calculated.
(In ATP-based viability assays light output follows the ATP content of the culture.)

For test [2], the target named is Ba/F3 EGFR-D770-N771ins_SVD (Homo sapiens, UniProt P00533, DUP768-770, cells depend on it). The test is described as follows: Cell proliferation study (CellTiter-Glo, 72 hrs), Ba/F3 EGFR-D770-N771ins_SVD. Conditions: CTG, * = average of multiple measurements, read-out: Ba/F3 EGFR-D770-N771ins_SVD IC50. How it is done: as §1, §2, §3, §4
Test [3] addresses Ba/F3 EGFR-V769_D770insASV (Homo sapiens, UniProt P00533, DUP767-769, cells depend on it). The test can be described thus: Cell proliferation study (CellTiter-Glo, 72 hrs), Ba/F3 EGFR-V769_D770insASV. As to conditions: CTG, * = average of multiple measurements, read-out: Ba/F3 EGFR-V769_D770insASV IC50. The protocol:
as §1, §2, §3, §4

Chain of Ba/F3 EGFR-D770-N771ins_SVD (P00533 with tags, fused parts or gaps DUP768-770): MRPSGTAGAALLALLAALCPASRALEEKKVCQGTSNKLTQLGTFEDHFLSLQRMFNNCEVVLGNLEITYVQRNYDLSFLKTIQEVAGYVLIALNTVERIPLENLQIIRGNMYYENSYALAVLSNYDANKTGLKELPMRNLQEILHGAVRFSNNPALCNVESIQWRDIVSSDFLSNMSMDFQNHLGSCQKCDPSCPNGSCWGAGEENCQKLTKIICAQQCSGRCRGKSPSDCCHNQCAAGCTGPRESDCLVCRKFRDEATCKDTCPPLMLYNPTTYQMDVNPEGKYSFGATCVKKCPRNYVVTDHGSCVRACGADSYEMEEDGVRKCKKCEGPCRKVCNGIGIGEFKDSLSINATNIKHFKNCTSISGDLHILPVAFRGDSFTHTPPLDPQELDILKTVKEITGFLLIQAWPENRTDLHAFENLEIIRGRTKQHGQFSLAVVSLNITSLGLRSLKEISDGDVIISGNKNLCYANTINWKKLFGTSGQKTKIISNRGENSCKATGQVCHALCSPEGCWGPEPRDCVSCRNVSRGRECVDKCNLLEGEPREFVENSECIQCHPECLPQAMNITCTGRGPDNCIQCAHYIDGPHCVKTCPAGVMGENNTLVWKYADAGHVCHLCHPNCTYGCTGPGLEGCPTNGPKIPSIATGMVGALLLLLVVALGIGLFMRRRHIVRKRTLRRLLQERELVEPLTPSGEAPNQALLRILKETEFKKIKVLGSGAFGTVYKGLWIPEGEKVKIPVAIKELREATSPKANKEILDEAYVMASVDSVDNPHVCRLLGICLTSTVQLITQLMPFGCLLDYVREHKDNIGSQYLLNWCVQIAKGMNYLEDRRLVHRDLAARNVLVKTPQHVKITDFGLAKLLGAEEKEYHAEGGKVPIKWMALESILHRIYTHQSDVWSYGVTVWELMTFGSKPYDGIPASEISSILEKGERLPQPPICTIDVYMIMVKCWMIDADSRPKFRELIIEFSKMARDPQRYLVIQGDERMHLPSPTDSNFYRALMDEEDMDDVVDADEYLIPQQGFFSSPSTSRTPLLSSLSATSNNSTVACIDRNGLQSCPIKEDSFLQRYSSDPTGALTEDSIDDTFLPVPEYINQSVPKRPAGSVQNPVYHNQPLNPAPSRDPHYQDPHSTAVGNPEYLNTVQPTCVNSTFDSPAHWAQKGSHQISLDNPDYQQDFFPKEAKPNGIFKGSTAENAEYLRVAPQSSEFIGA
Chain of Ba/F3 EGFR-V769_D770insASV (P00533 with tags, fused parts or gaps DUP767-769): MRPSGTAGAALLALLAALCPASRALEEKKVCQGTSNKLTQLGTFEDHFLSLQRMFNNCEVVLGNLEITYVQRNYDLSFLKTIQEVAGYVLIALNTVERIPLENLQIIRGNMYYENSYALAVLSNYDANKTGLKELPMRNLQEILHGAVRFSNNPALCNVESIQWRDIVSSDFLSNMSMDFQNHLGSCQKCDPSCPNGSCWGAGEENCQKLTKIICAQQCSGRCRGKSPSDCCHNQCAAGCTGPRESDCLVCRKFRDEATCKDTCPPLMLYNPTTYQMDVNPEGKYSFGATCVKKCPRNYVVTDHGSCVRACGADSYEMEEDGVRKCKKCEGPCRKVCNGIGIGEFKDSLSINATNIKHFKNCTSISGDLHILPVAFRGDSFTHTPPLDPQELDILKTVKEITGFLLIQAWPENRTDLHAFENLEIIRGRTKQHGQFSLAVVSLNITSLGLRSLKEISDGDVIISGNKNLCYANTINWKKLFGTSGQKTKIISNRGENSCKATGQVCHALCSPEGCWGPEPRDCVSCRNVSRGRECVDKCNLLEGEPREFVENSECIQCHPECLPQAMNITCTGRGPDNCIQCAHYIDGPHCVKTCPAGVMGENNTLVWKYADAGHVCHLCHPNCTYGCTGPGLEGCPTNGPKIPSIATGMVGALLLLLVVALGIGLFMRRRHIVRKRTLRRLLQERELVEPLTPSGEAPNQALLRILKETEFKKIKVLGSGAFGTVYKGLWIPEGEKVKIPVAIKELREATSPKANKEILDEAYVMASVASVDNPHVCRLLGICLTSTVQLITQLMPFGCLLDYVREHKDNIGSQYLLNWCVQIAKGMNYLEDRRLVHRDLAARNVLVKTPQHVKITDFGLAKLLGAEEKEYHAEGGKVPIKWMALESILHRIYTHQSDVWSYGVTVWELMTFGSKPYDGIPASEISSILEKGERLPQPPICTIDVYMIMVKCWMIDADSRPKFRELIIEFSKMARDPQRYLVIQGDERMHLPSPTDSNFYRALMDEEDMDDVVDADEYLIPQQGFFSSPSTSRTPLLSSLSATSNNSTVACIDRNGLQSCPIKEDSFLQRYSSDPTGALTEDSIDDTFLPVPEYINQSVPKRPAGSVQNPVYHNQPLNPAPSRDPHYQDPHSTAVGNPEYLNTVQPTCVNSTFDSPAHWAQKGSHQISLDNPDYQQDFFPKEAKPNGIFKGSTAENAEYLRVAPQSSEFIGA

The molecule `C=CC(=O)Nc1cc(Nc2ncc(C(=O)OC(C)C)c(N3CC4(CC4)c4nc(C)ccc43)n2)c(OC)cc1N(C)C[C@@H]1CCCN1C` [Example 44, isopropyl (S)-2-((5-acrylamido-2-methoxy-4-(methyl((1-methylpyrrolidin-2-yl)methyl)amino)phenyl)amino)-4-(5′-methylspiro(cyclopropane-1,3′-pyrrolo[3,2-b]pyridin)-1′(2′H)-yl)pyrimidine-5-carboxylate] gave a concentration for half-maximal inhibition (IC50) in test [1] of 235 nM. The GI50 in test [2] worked out at 30.4 nM; in test [3] it was 76.5 nM.

In turn, `C#Cc1ccc2c(n1)C(C)(C)CN2c1nc(Nc2cc(NC(=O)C=C)c(N(C)CCN(C)C)cc2OC)ncc1C(=O)OC(C)C` [Example 9, isopropyl 2-((5-acrylamido-4-((2-(dimethylamino)ethyl)(methyl)amino)-2-methoxyphenyl)amino)-4-(5-ethynyl-3,3-dimethyl-2,3-dihydro-1H-pyrrolo[3,2-b]pyridin-1-yl)pyrimidine-5-carboxylate] returned an IC50 in test [1] of 23.3 nM. The GI50 stood at 17.8 nM in test [2] and 31.8 nM in test [3].

Consider `C=CC(=O)Nc1cc(Nc2ncc(C(=O)OC(C)C)c(N3CC4(CCC4)c4nc(-c5cnn(C)c5)ccc43)n2)c(OC)cc1N(C)CCN(C)C` [Example 10, isopropyl 2-((5-acrylamido-4-((2-(dimethylami-no)ethyl)(methyl)amino)-2-methoxy-phenyl)amino)-4-(5′-(1-methyl-1H-pyrazol-4-yl)spiro(cyclobutane-1,3′-pyrrolo[3,2-b]pyridin)-1′(2′H)-yl)pyrimidine-5-carboxylate], for which half-maximal inhibition in test [1] (IC50) was put at 278 nM. For the same molecule, the GI50 in test [2] is 36.9 nM; in test [3], 39.4 nM.

As to `C=CC(=O)Nc1cc(Nc2ncc(C(=O)OC(C)C)c(N3CC(C)(C)c4cc(F)c(F)cc43)n2)c(OC)cc1N1CCC[C@@H]1CN(C)C` [Example 92, isopropyl (R)-2-((5-acrylamido-4-(2-((dimethyl-amino)methyl)pyrrolidin-1-yl)-2-meth-oxyphenyl)amino)-4-(5,6-difluoro-3,3-dimethylindolin-1-yl)pyrimidine-5-carboxylate], in test [1], 962 nM corresponded to half-maximal inhibition (IC50). The GI50 worked out at 33.2 nM in test [2] and 27.9 nM in test [3].

In the case of `C=CC(=O)Nc1cc(Nc2ncc(C(=O)OC(C)C)c(N3CC4(CC4)c4nc(C)ccc43)n2)c(OC)cc1NCCN(C)C` [Example 65, isopropyl 2-((5-acrylamido-4-((2-(dimethylami-no)ethyl)amino)-2-methoxy-phenyl)amino)-4-(5′-methylspiro(cyclo-propane-1,3′-pyrrolo[3,2-b]pyridin)-1′(2′H)-yl)pyrimidine-5-carboxylate], the half-maximal inhibitory concentration (IC50) in test [1] was 282 nM. Further, the GI50 in test [2] came out at 39 nM; in test [3], 34.4 nM.

As for `C=CC(=O)Nc1cc(Nc2ncc(C(=O)OC(C)C)c(N3CC4(CCC4)c4nc(C)ccc43)n2)c(OC)cc1N(C)CCN(C)C` [Example 5, isopropyl 2-((5-acrylamido-4-((2-(dimethylami-no)ethyl)(methyl)amino)-2-methoxy-phenyl)amino)-4-(5′-methylspiro(cyclo-butane-1,3′-pyrrolo[3,2-b]pyridin)-1′(2′H)-yl)pyrimidine-5-carboxylate], 516 nM corresponded to half-maximal inhibition in test [1] (IC50). The GI50 in test [2] stood at 15.8 nM; in test [3] it was 30.4 nM.

`C=CC(=O)Nc1cc(Nc2ncc(C(=O)OC(C)C)c(N3CC(C)(C)c4nc(C#CC)ccc43)n2)c(OC)cc1N1C[C@@H](F)C[C@@H]1CN(C)C` [Example 84, isopropyl 2-((5-acrylamido-4-((2R,4S)-2-((di-methylamino)methyl)-4-fluoro-pyrrolidin-1-yl)-2-methoxy-phenyl)amino)-4-(3,3-dimethyl-5-(prop-1-yn-1-yl)-2,3-dihydro-1H-pyrrolo[3,2-b]pyridin-1-yl)pyrimidine-5-carboxylate] yielded an IC50 in test [1] of 220 nM. The figures for the GI50 in test [2] and in test [3] were 12 nM and 12.6 nM, respectively.

Consider `C=CC(=O)Nc1cc(Nc2ncc(C(=O)OC(C)C)c(N3CC(C)(C)c4nc(C)ccc43)n2)c(OC)cc1NCCN(C)C` [Example 55, isopropyl 2-((5-acrylamido-4-((2-(dimethylami-no)ethyl)amino)-2-methoxy-phenyl)amino)-4-(3,3,5-trimethyl-2,3-dihydro-1H-pyrrolo[3,2-b]pyridin-1-yl)pyrimidine-5-carboxylate], for which, in test [1], the IC50 stood at 432 nM. Besides, the GI50 in test [2] turned out to be 22.8 nM; in test [3] it was 52 nM.

`[2H]C([2H])([2H])Oc1cc(N(CCN(C([2H])([2H])[2H])C([2H])([2H])[2H])C([2H])([2H])[2H])c(NC(=O)C=C)cc1Nc1ncc(C(=O)OC(C)C)c(N2CC(C)(C)c3nc(C)ccc32)n1` [Example 72, isopropyl 2-((5-acrylamido-4-((2-(bis(methyl-d3)amino)ethyl)(methyl-d3)amino)-2-(methoxy-d3)phenyl)amino)-4-(3,3,5-trimethyl-2,3-dihydro-1H-pyrrolo[3,2-b]pyridin-1-yl)pyrimidine-5-carboxylate]: in test [1], the IC50 was 120 nM. Moreover, the results for the GI50 in test [2] and in test [3] were 24.8 nM and 35.3 nM, respectively.

`[2H]C([2H])([2H])N(CCN(C([2H])([2H])[2H])C([2H])([2H])[2H])c1cc(OC)c(Nc2ncc(C(=O)OC(C)C)c(N3CC(C)(C)c4nc(C)ccc43)n2)cc1NC(=O)C=C` [Example 77, isopropyl 2-((5-acrylamido-4-((2-(bis(methyl-d3)amino)ethyl)(methyl-d3)amino)-2-methoxyphenyl)amino)-4-(3,3,5-tri-methyl-2,3-dihydro-1H-pyrrolo[3,2-b]pyridin-1-yl)pyrimidine-5-carboxylate]: inhibition in test [1] was half-maximal at 97.2 nM (IC50). Moreover, the figures for the GI50 in test [2] and in test [3] were 11.7 nM and 32.2 nM, respectively.

`C=CC(=O)Nc1cc(Nc2ncc(C(=O)OC(C)C)c(N3CC(C)(C)c4nc(F)ccc43)n2)c(OC)cc1N(C)CCN(C)C` [Example 11, isopropyl 2-((5-acrylamido-4-((2-(dimethylami-no)ethyl)(methyl)amino)-2-methoxy-phenyl)amino)-4-(5-fluoro-3,3-dimethyl-2,3-dihydro-1H-pyrrolo[3,2-b]pyridin-1-yl)pyrimidine-5-carboxylate] gave an IC50 in test [1] of 828 nM. The GI50 in test [2] was 30.2 nM; in test [3] it was 37.3 nM.

`C=CC(=O)Nc1cc(Nc2ncc(C(=O)OC(C)C)c(N3CC(C)(C)c4cc(F)c(F)cc43)n2)c(OC)cc1N1C[C@@H](F)C[C@@H]1CN(C)C` [Example 93, isopropyl 2-((5-acrylamido-4-((2R,4S)-2-((di-methylamino)methyl)-4-fluoro-pyrrolidin-1-yl)-2-methoxy-phenyl)amino)-4-(5,6-difluoro-3,3-dimethylindolin-1-yl)pyrimidine-5-carboxylate]: in test [1], half-maximal inhibition (IC50) required 778 nM. For the same molecule, the GI50 in test [2] is 34.6 nM; in test [3] it was 28.8 nM.

Regarding `[2H]C([2H])([2H])N(CCN(C([2H])([2H])[2H])C([2H])([2H])[2H])c1cc(OC)c(Nc2ncc(C(=O)OC(C)C)c(N3CC4(CC4)c4nc(C)ccc43)n2)cc1NC(=O)C=C` [Example 69, isopropyl 2-((5-acrylamido-4-((2-(bis(methyl-d3)amino)ethyl)(methyl-d3)amino)-2-methoxyphenyl)amino)-4-(5′-methylspiro(cyclopropane-1,3′-pyrrolo[3,2-b]pyridin)-1′(2′H)-yl)pyrimidine-5-carboxylate], the GI50 in test [2] stood at 26.9 nM; in test [3], 35.2 nM.
